Assay results reported in PMC7156458, “Synthetic biology based construction of biological activity-related library of fungal decalin-containing diterpenoid pyrones” (Nature Communications, 2020).

Target: Aβ42 (Homo sapiens, UniProt P05067)
Assay: Th-T (thioflavin-T) assay of Aβ42 aggregation
Type: biochemical
Details: for Th-T fluorescence, mean of three wells: compound at 50

Aβ42, sequence (P05067 672-713): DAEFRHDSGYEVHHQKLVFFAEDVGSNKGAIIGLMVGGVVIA

What does the source list for `C=C1CCC2C(C)(CCC=C(C)C)C(O)CCC2(C)C1Cc1c(OC)oc(C)c(C(=O)OC)c1=O` (stereo not drawn) [Compound 14]?
Th-T fluorescence, mean of three wells (reading M54 of time course): 4.776; Th-T fluorescence, mean of three wells (reading M55 of time course): 4.689; Th-T fluorescence, mean of three wells (reading M56 of time course): 4.625; Th-T fluorescence, mean of three wells (reading M57 of time course): 4.524; Th-T fluorescence, mean of three wells (reading M58 of time course): 4.45; Th-T fluorescence, mean of three wells (reading M59 of time course): 4.296; Th-T fluorescence, mean of three wells (reading M60 of time course): 4.2063; Th-T fluorescence, mean of three wells (reading M61 of time course): 4.042; Th-T fluorescence, mean of three wells (reading M62 of time course): 3.946; Th-T fluorescence of Aβ42 with compound, mean of three wells (Fig. 7a source data) (concentration 10, unit not given, time-course reading M129): 2.897; Th-T fluorescence of Aβ42 with compound, mean of three wells (Fig. 7a source data) (concentration 10, unit not given, time-course reading M130): 2.933; Th-T fluorescence of Aβ42 with compound, mean of three wells (Fig. 7a source data) (concentration 10, unit not given, time-course reading M131): 2.925; Th-T fluorescence of Aβ42 with compound, mean of three wells (Fig. 7a source data) (concentration 10, unit not given, time-course reading M132): 2.913; Th-T fluorescence of Aβ42 with compound, mean of three wells (Fig. 7a source data) (concentration 10, unit not given, time-course reading M133): 2.914; Th-T fluorescence of Aβ42 with compound, mean of three wells (Fig. 7a source data) (concentration 10, unit not given, time-course reading M134): 2.928; Th-T fluorescence of Aβ42 with compound, mean of three wells (Fig. 7a source data) (concentration 10, unit not given, time-course reading M135): 2.926; Th-T fluorescence of Aβ42 with compound, mean of three wells (Fig. 7a source data) (concentration 10, unit not given, time-course reading M136): 2.935; Th-T fluorescence of Aβ42 with compound, mean of three wells (Fig. 7a source data) (concentration 10, unit not given, time-course reading M137): 2.902; Th-T fluorescence of Aβ42 with compound, mean of three wells (Fig. 7a source data) (concentration 10, unit not given, time-course reading M138): 2.929; Th-T fluorescence of Aβ42 with compound, mean of three wells (Fig. 7a source data) (concentration 10, unit not given, time-course reading M139): 2.934; Th-T fluorescence of Aβ42 with compound, mean of three wells (Fig. 7a source data) (concentration 10, unit not given, time-course reading M140): 2.924; Th-T fluorescence of Aβ42 with compound, mean of three wells (Fig. 7a source data) (concentration 10, unit not given, time-course reading M141): 2.927; Th-T fluorescence of Aβ42 with compound, mean of three wells (Fig. 7a source data) (concentration 10, unit not given, time-course reading M142): 2.953; Th-T fluorescence of Aβ42 with compound, mean of three wells (Fig. 7a source data) (concentration 10, unit not given, time-course reading M143): 2.943; Th-T fluorescence of Aβ42 with compound, mean of three wells (Fig. 7a source data) (concentration 10, unit not given, time-course reading M144): 2.936; Th-T fluorescence of Aβ42 with compound, mean of three wells (Fig. 7a source data) (concentration 10, unit not given, time-course reading M145): 2.952; Th-T fluorescence of Aβ42 with compound, mean of three wells (Fig. 7a source data) (concentration 20, unit not given, time-course reading M129): 1.587; Th-T fluorescence of Aβ42 with compound, mean of three wells (Fig. 7a source data) (concentration 20, unit not given, time-course reading M130): 1.596; Th-T fluorescence of Aβ42 with compound, mean of three wells (Fig. 7a source data) (concentration 20, unit not given, time-course reading M131): 1.618; Th-T fluorescence of Aβ42 with compound, mean of three wells (Fig. 7a source data) (concentration 20, unit not given, time-course reading M132): 1.578; Th-T fluorescence of Aβ42 with compound, mean of three wells (Fig. 7a source data) (concentration 20, unit not given, time-course reading M133): 1.602; Th-T fluorescence of Aβ42 with compound, mean of three wells (Fig. 7a source data) (concentration 20, unit not given, time-course reading M134): 1.594; Th-T fluorescence of Aβ42 with compound, mean of three wells (Fig. 7a source data) (concentration 20, unit not given, time-course reading M135): 1.594; Th-T fluorescence of Aβ42 with compound, mean of three wells (Fig. 7a source data) (concentration 20, unit not given, time-course reading M136): 1.5818; Th-T fluorescence of Aβ42 with compound, mean of three wells (Fig. 7a source data) (concentration 20, unit not given, time-course reading M137): 1.578; Th-T fluorescence of Aβ42 with compound, mean of three wells (Fig. 7a source data) (concentration 20, unit not given, time-course reading M138): 1.586; Th-T fluorescence of Aβ42 with compound, mean of three wells (Fig. 7a source data) (concentration 20, unit not given, time-course reading M139): 1.563; Th-T fluorescence of Aβ42 with compound, mean of three wells (Fig. 7a source data) (concentration 20, unit not given, time-course reading M140): 1.578; Th-T fluorescence of Aβ42 with compound, mean of three wells (Fig. 7a source data) (concentration 20, unit not given, time-course reading M141): 1.561; Th-T fluorescence of Aβ42 with compound, mean of three wells (Fig. 7a source data) (concentration 20, unit not given, time-course reading M142): 1.586; Th-T fluorescence of Aβ42 with compound, mean of three wells (Fig. 7a source data) (concentration 20, unit not given, time-course reading M143): 1.575; Th-T fluorescence of Aβ42 with compound, mean of three wells (Fig. 7a source data) (concentration 20, unit not given, time-course reading M144): 1.583; Th-T fluorescence of Aβ42 with compound, mean of three wells (Fig. 7a source data) (concentration 20, unit not given, time-course reading M145): 1.572; Th-T fluorescence of Aβ42 with compound, mean of three wells (Fig. 7a source data) (concentration 50, unit not given, time-course reading M129): 0.8842; Th-T fluorescence of Aβ42 with compound, mean of three wells (Fig. 7a source data) (concentration 50, unit not given, time-course reading M130): 0.8634; Th-T fluorescence of Aβ42 with compound, mean of three wells (Fig. 7a source data) (concentration 50, unit not given, time-course reading M131): 0.8505; Th-T fluorescence of Aβ42 with compound, mean of three wells (Fig. 7a source data) (concentration 50, unit not given, time-course reading M132): 0.8369; Th-T fluorescence of Aβ42 with compound, mean of three wells (Fig. 7a source data) (concentration 50, unit not given, time-course reading M133): 0.8131; Th-T fluorescence of Aβ42 with compound, mean of three wells (Fig. 7a source data) (concentration 50, unit not given, time-course reading M134): 0.8297; Th-T fluorescence of Aβ42 with compound, mean of three wells (Fig. 7a source data) (concentration 50, unit not given, time-course reading M135): 0.8031; Th-T fluorescence of Aβ42 with compound, mean of three wells (Fig. 7a source data) (concentration 50, unit not given, time-course reading M136): 0.8035; Th-T fluorescence of Aβ42 with compound, mean of three wells (Fig. 7a source data) (concentration 50, unit not given, time-course reading M137): 0.7873; Th-T fluorescence of Aβ42 with compound, mean of three wells (Fig. 7a source data) (concentration 50, unit not given, time-course reading M138): 0.78; Th-T fluorescence of Aβ42 with compound, mean of three wells (Fig. 7a source data) (concentration 50, unit not given, time-course reading M139): 0.7658; Th-T fluorescence of Aβ42 with compound, mean of three wells (Fig. 7a source data) (concentration 50, unit not given, time-course reading M140): 0.7572; Th-T fluorescence of Aβ42 with compound, mean of three wells (Fig. 7a source data) (concentration 50, unit not given, time-course reading M141): 0.7413; Th-T fluorescence of Aβ42 with compound, mean of three wells (Fig. 7a source data) (concentration 50, unit not given, time-course reading M142): 0.7418
